# Laboratory results published in publication PMC12677699, “Utilizing Proteolytic‐Resistant Nano‐Short Peptide Based on Naphthyl Tail‐Anchored to Combat Bacterial Infections” (Advanced Science, 2025).
# How the values were obtained:
# [1] = Critical aggregation concentration, 1,8-ANS fluorescence; type: physicochemical; conditions: 1,8-ANS 1 × 10^−6 M, peptide 2-256 × 10^−6 M in deionized water, 1 h, ex 360 nm, em 420–670 nm, linear fitting of fluorescence intensities
# Protocol: The self‐assembly behavior of nano‐short peptides was characterized by determining the CAC using 1,8‐ANS as a hydrophobic fluorescent probe.^[ [32] ^] Serial peptide dilutions (2‐256 × 10^−6 M in 50 µL deionized water) were prepared in 96‐well plates. 1,8‐ANS powder was solubilized in dimethylformamide (DMF) and added to the 96‐well plates (final concentration of 1 × 10^−6 M), and deionized water solution containing 1,8‐ANS was used as a blank control. After incubation for 1 h, the fluorescence emission spectra were continuously monitored with a microplate reader (Tecan Infinite200 Pro, λ excitation = 360 nm, λ emission = 420–670 nm). CAC values were determined by linear fitting of representative fluorescence intensities.
# E. coli ATCC 25922 = assay: Drug resistance assay, 30 serial passages; type: cell-based, Escherichia coli; conditions: E. coli ATCC 25922, 30 successive passages at sub-MIC concentrations
# Protocol: The potential resistance development of nano‐short peptides was evaluated through 30 serial passages of E. coli ATCC 25922 and S. aureus ATCC 29213 in sub‐MIC conditions,^[ [38] ^] using gentamicin as control.
# [2] = Dynamic light scattering and zeta potential; type: physicochemical; conditions: 16 × 10^−6 M in deionized water; n = 3
# Protocol: N4 was diluted to 16 × 10^−6 M using deionized water and added to disposable plastic cuvettes, and the kinetic diameters was determined using a Zetasizer Nano Z90 (Malvern Instruments, Worcestershire, U.K.).^[ [29] ^] N4 was diluted to 16 × 10^−6 M using deionized water and added to the electrode cups, and the zeta potential was determined using a Zetasizer Nano Z90 (Malvern Instruments, Worcestershire, UK).^[ [29] ^]
# MRSA = assay: MRSA-mediated skin infection model; type: in vivo, mouse; set-up: bacterial load in skin tissue, Day 5 / bacterial load in skin tissue, Day 9: dose or concentration left out as unconfirmed; conditions: MRSA wound, n = 8
# Description: The mouse skin infection model was based on previous research with some modifications.^[ [62] ^] The mice utilized in the […] were consistent with those employed in the in vivo toxicity assessment. Forty‐eight mice were randomly divided into three groups after a 3‐day pre‐feeding period, including control, N4‐treated and MRSA‐infected groups. Initially, the dorsal regions of the mice were depilated (Day ‐1). On the following day (Day 0), circular incisions were made on the dorsal surfaces, and 10 µL of saline‐diluted MRSA suspension (OD600 = 0.2) was applied to the wounds of the mice in N4‐treated and MRSA‐infected groups, while an equivalent volume of saline was administered to the wounds in the control mice. […] The above treatments were repeated after […] (Day 3). Throughout the experimental period, representative images of the wounds were captured.
# Mice were euthanized on Days 5 and 9 post‐infection, and skin tissue homogenates were quantified for bacterial load. Subsequently, the supernatants of skin tissue homogenates from mice on Day 9 were selected for the detection of inflammatory factors, and wound tissues were collected for histological, Masson and immunofluorescence analyses.
# [3] = Day 9, vs infected group, p < 0.05
compound,measurement,setting,value
N=C(N)NCCC[C@H](NC(=O)[C@@H](CCCNC(=N)N)NC(=O)[C@H](Cc1cccc2ccccc12)NC(=O)[C@H](Cc1cccc2ccccc12)NC(=O)[C@H](Cc1cccc2ccccc12)NC(=O)[C@@H](N)Cc1cccc2ccccc12)C(=O)N[C@@H](CCCNC(=N)N)C(=O)N1CCC[C@H]1C(=O)O (stereo in doubt) [Peptide N4],critical aggregation concentration (CAC),[1],5.78 µM
same,increase in MIC values after serial passage,E. coli ATCC 25922,remained largely unchanged
same,zeta potential,[2],6.99 mV
same,"bacterial load in skin tissue, Day 9","MRSA; 10 µL of N4, twice a day on Day 1 and Day 3, topical, infected group 6.89",6.12 log10 CFU g^−1
same,"bacterial load in skin tissue, Day 5","MRSA; 10 µL of N4, twice a day on Day 1 and Day 3, topical, infected group 7.1",6.59 log10 CFU g^−1
same,anti-inflammatory cytokine IL-10 in supernatant of skin tissues,MRSA; [3],significant increase
same,"pro-inflammatory cytokines (IL-1β, IL-6, TNF-α) in supernatant of skin tissues",MRSA; [3],significant decrease
